Tests used:
[1] = tested on: female in-patients with primary degenerative dementia (Alzheimer like); test: 8-day GRF (1-29) NH2 therapy, MMS Folstein test and Crichton's scale; assay type: in vivo, human; conditions: for MMS Folstein and Crichton's scale scores and clinical findings: 8 days, 12 hours, 24 hours, 7 days
Protocol: Twenty female in-patients with primary degenerative dementia (Alzheimer like) aged 67-84 years were divided in two therapy-groups with GRF (1-29) NH2. All patients were treated with this product for 8 days with either of the following schedules: (I) 250 mcg s.c. twice daily (II) 50 mcg i.v. twice daily Therapy was started after a 15-day wash-out period for psychotropic-drugs. Evolution of patients was assessed using the MMS Folstein test and Chrichton's scale test at 12 hours, 24 hours and 7 days after starting with GRF. The statistical evaluation was made using Friedman test with a risk level p<0,01 (highly significant differences).

growth hormone (GH) = test: GRF test: GRF-induced plasma GH response (radioimmunoassay); assay type: in vivo, human; conditions: for GRF-induced GH response: GRF(1-44)NH2 100 mcg i.v. bolus
Text: The subjects were divided into three groups:
(a) controls (N =9): 5 females and 4 males (age =70.10±2.76 years; range =66-75);
(b) inpatients with early onset senile dementia of the Alzheimer type (EOSDAT) (N =10): 5 females and 5 males (age 65.00±3.31 years; range =57-69); and
(c) inpatients with late onset senile dementia of the Alzheimer type (LOSDAT) (N =10): 5 females and 5 males (age =75.70±3.77 years; range =70-82).
All the SDAT patients met the DSM-III criteria for primary degenerative dementia and rigorous diagnostic criteria for SDAT. […] In LOSDAT, the onset of the disease occurred after the age of 60. The degree of severity of the dementia was assessed with Hasegawa's Dementia Rating Scale (DRS) (Hasegawa K., Inoue K. "An investigation of dementia rating scale for the elderly." Seishinigaku 16:965-969, 1974), Folstein's Mini-Mental State (MMS) Test (Folstein M. F., Folstein S., McHugh P. "Mini-mental state: a practical method for grading the cognitive state of patients for the clinician." J. Psychiat. Res. 12:189-198, 1975) and a modified model of the Brief Cognitive Rating Scale (BCRS) and Functional Assessment Stages (FAST) of Reisberg (Reisberg B., Ferris S. H., De Leon M. J. "Senile dementia of the Alzheimer type: Diagnosis and differential diagnostic features with special reference to functional assessment staging." in: Traber J., Gispen W. H. (Ed). Senile dementia of the Alzheimer type. pp 18-37, Springer-Verlag, Berlin, 1985). Concomitant pathology other than SDAT was discarded under a careful screening of the subjects with CT Scan, EEG, ECG and complementary laboratory data. Current diagnosis or history of SDM-III major affective disorder or schizophrenia as well as history of endocrine disease were criteria for exclusion. All of the control subjects were free of psychiatric and endocrine illness. All subjects included had been drug-free for a minimum of 7 days before testing.
A 21-gauge indwelling venous needle with an attached three-way stopcook was inserted into the antecubital vein. Baseline blood samples for GH determination were collected immediately before testing. GRF(1-44)NH2was then injected as an intravenous bolus (100 mcg), and blood samples were obtained at 15, 30, 45, 60, 90 and 120 minutes after injection for determination of GH concentrations in plasma. The plasma GH levels were measured by radioimmunoassay using a commercial GH-RIA-Kit (Dainabot Co. Ltd. Tokyo). The intra- and inter-assay coefficients of variation were 6.9% and 10.6%, respectively.
(§1) The results were analyzed statistically by the Student's test, analysis of variance (ANOVA) and the Mann-Whitney test using a NEC PC-9801VM2 computer.

[2] = tested on: controls and SDAT subjects; test: Electroencephalographic monitoring during the GRF test; assay type: in vivo, human; conditions: for EEG amplitude, sequential analysis (increase) / EEG frequency, sequential analysis (fall): 15 to 45 minutes after injection
Protocol: Simultaneously to the performance of the GRF test, electroencephalograhic and cardiovascular monitorization of the subjects were carried out. Twenty-four hours prior to the GRF test, and 3, 12, 24 and 48 hours after testing, the DRS, MMS, BCRS, and FAST tests were performed to evaluate mental performance and behavior. Additional monitoring of GRF effects was done by global physician assessment and evaluation of the Mihara Nursing Scale (MNS). This test was developed to be used as a non-cognitive parametric indicator involving several items, including quantification of food intake, locomotion, social interaction, and complementary laboratory data.
as §1

Male Wistar rats = test: Locomotor activity and learning in maze paradigm (escape from 1.5 mA shock area), i.c.v. injection; assay type: in vivo; conditions: GRF1-44 5 mcg i.c.v., 30 minutes; control 17.12±5.42 pm

Substance: growth hormone releasing factor [GRF]
- comparison of i.v. and s.c. groups (increase in scores and clinical findings) ([1]; GRF (1-29) NH2 50 mcg i.v. vs 250 mcg s.c. twice daily): more important in the group with i.v. GRF administration than in the one with s.c. administration
- persistence of effect ([1]; GRF (1-29) NH2, both groups): remains significant over the whole 7 days of treatment
- start of effect after administration ([1]; GRF (1-29) NH2, both groups): 12 h
- sphincter control and general psychomotricity after discontinuation ([1]; GRF (1-29) NH2 administration discontinued): returned to pretreatment situation
- sphincter control and general psychomotricity (nurse's report) ([1]; during treatment with GRF (1-29) NH2): improvement
- MMS Folstein and Crichton's scale scores and clinical findings ([1]; group I: GRF (1-29) NH2 250 mcg s.c. twice daily): significant increase
- MMS Folstein and Crichton's scale scores and clinical findings ([1]; group II: GRF (1-29) NH2 50 mcg i.v. twice daily): significant increase
- plasma GH (growth hormone (GH); CONTROL (females), 0 min (basal, before GRF(1-44)NH2 100 mcg i.v.)): 1.03 ± 0.94 ng/mL
- plasma GH (growth hormone (GH); CONTROL (females), 15 min after GRF(1-44)NH2 100 mcg i.v.): 3.09 ± 1.58 ng/mL
- plasma GH (growth hormone (GH); CONTROL (females), 30 min after GRF(1-44)NH2 100 mcg i.v.): 3.68 ± 2.09 ng/mL
- plasma GH (growth hormone (GH); CONTROL (females), 45 min after GRF(1-44)NH2 100 mcg i.v.): 4.28 ± 3.38 ng/mL
- plasma GH (growth hormone (GH); CONTROL (females), 60 min after GRF(1-44)NH2 100 mcg i.v.): 2.97 ± 1.96 ng/mL
- plasma GH (growth hormone (GH); CONTROL (females), 90 min after GRF(1-44)NH2 100 mcg i.v.): 2.04 ± 1.38 ng/mL
- plasma GH (growth hormone (GH); CONTROL (females), 120 min after GRF(1-44)NH2 100 mcg i.v.): 1.10 ± 0.95 ng/mL
- plasma GH (growth hormone (GH); CONTROL (males), 0 min (basal, before GRF(1-44)NH2 100 mcg i.v.)): 1.07 ± 0.92 ng/mL
- plasma GH (growth hormone (GH); CONTROL (males), 15 min after GRF(1-44)NH2 100 mcg i.v.): 2.21 ± 1.87 ng/mL
- plasma GH (growth hormone (GH); CONTROL (males), 30 min after GRF(1-44)NH2 100 mcg i.v.): 3.16 ± 2.76 ng/mL
- plasma GH (growth hormone (GH); CONTROL (males), 45 min after GRF(1-44)NH2 100 mcg i.v.): 5.17 ± 3.46 ng/mL
- plasma GH (growth hormone (GH); CONTROL (males), 60 min after GRF(1-44)NH2 100 mcg i.v.): 3.17 ± 2.61 ng/mL
- plasma GH (growth hormone (GH); CONTROL (males), 90 min after GRF(1-44)NH2 100 mcg i.v.): 1.88 ± 1.87 ng/mL
- plasma GH (growth hormone (GH); CONTROL (males), 120 min after GRF(1-44)NH2 100 mcg i.v.): 0.91 ± 0.87 ng/mL
- delay of GH response relative to the small peak in control subjects (growth hormone (GH); EOSDAT): about 15 minutes
- plasma GH (growth hormone (GH); EOSDAT (females), 0 min (basal, before GRF(1-44)NH2 100 mcg i.v.)): 1.92 ± 1.52 ng/mL
- plasma GH (growth hormone (GH); EOSDAT (females), 15 min after GRF(1-44)NH2 100 mcg i.v.): 2.23 ± 1.90 ng/mL
- plasma GH (growth hormone (GH); EOSDAT (females), 30 min after GRF(1-44)NH2 100 mcg i.v.): 6.26 ± 2.05 ng/mL
- plasma GH (growth hormone (GH); EOSDAT (females), 45 min after GRF(1-44)NH2 100 mcg i.v.): 14.86 ± 3.57 ng/mL
- plasma GH (growth hormone (GH); EOSDAT (females), 60 min after GRF(1-44)NH2 100 mcg i.v.): 19.74 ± 4.86 ng/mL
- plasma GH (growth hormone (GH); EOSDAT (females), 90 min after GRF(1-44)NH2 100 mcg i.v.): 11.28 ± 5.72 ng/mL
- plasma GH (growth hormone (GH); EOSDAT (females), 120 min after GRF(1-44)NH2 100 mcg i.v.): 5.09 ± 3.01 ng/mL
- plasma GH (growth hormone (GH); EOSDAT (males), 0 min (basal, before GRF(1-44)NH2 100 mcg i.v.)): 1.99 ± 1.67 ng/mL
- plasma GH (growth hormone (GH); EOSDAT (males), 15 min after GRF(1-44)NH2 100 mcg i.v.): 2.70 ± 1.92 ng/mL
- plasma GH (growth hormone (GH); EOSDAT (males), 30 min after GRF(1-44)NH2 100 mcg i.v.): 5.49 ± 1.91 ng/mL
- plasma GH (growth hormone (GH); EOSDAT (males), 45 min after GRF(1-44)NH2 100 mcg i.v.): 6.87 ± 2.84 ng/mL
- plasma GH (growth hormone (GH); EOSDAT (males), 60 min after GRF(1-44)NH2 100 mcg i.v.): 11.52 ± 2.82 ng/mL
- plasma GH (growth hormone (GH); EOSDAT (males), 90 min after GRF(1-44)NH2 100 mcg i.v.): 7.41 ng/mL
- plasma GH (growth hormone (GH); EOSDAT (males), 120 min after GRF(1-44)NH2 100 mcg i.v.): 2.73 ± 1.71 ng/mL
- rise of plasma GH levels after GRF injection (growth hormone (GH); EOSDAT females): 19.74 ± 4.86 ng·mL
- rise of plasma GH levels after GRF injection (growth hormone (GH); EOSDAT males): 11.52 ± 2.82 ng/mL
- rise of plasma GH levels after GRF injection, individual range (growth hormone (GH); EOSDAT responders): 5.5 to 28.75 ng/mL
- maximum peak of plasma GH (growth hormone (GH); EOSDAT, 60 minutes after GRF(1-44)NH2 100 mcg i.v. bolus): 15.61 ± 5.71 ng/mL
- plasma GH (growth hormone (GH); LOSDAT (females), 0 min (basal, before GRF(1-44)NH2 100 mcg i.v.)): 1.09 ± 1.01 ng/mL
- plasma GH (growth hormone (GH); LOSDAT (females), 15 min after GRF(1-44)NH2 100 mcg i.v.): 2.04 ± 1.01 ng/mL
- plasma GH (growth hormone (GH); LOSDAT (females), 30 min after GRF(1-44)NH2 100 mcg i.v.): 3.65 ± 2.35 ng/mL
- plasma GH (growth hormone (GH); LOSDAT (females), 45 min after GRF(1-44)NH2 100 mcg i.v.): 4.68 ± 3.18 ng/mL
- plasma GH (growth hormone (GH); LOSDAT (females), 60 min after GRF(1-44)NH2 100 mcg i.v.): 4.97 ± 3.86 ng/mL
- plasma GH (growth hormone (GH); LOSDAT (females), 90 min after GRF(1-44)NH2 100 mcg i.v.): 4.04 ± 3.22 ng/mL
- plasma GH (growth hormone (GH); LOSDAT (females), 120 min after GRF(1-44)NH2 100 mcg i.v.): 2.44 ± 2.05 ng/mL
- plasma GH (growth hormone (GH); LOSDAT (males), 0 min (basal, before GRF(1-44)NH2 100 mcg i.v.)): 0.95 ± 0.98 ng/mL
- plasma GH (growth hormone (GH); LOSDAT (males), 15 min after GRF(1-44)NH2 100 mcg i.v.): 2.13 ± 0.94 ng/mL
- plasma GH (growth hormone (GH); LOSDAT (males), 30 min after GRF(1-44)NH2 100 mcg i.v.): 2.81 ± 1.90 ng/mL
- plasma GH (growth hormone (GH); LOSDAT (males), 45 min after GRF(1-44)NH2 100 mcg i.v.): 3.61 ± 3.51 ng/mL
- plasma GH (growth hormone (GH); LOSDAT (males), 60 min after GRF(1-44)NH2 100 mcg i.v.): 4.09 ± 2.56 ng/mL
- plasma GH (growth hormone (GH); LOSDAT (males), 90 min after GRF(1-44)NH2 100 mcg i.v.): 3.08 ± 2.22 ng/mL
- plasma GH (growth hormone (GH); LOSDAT (males), 120 min after GRF(1-44)NH2 100 mcg i.v.): 1.64 ± 0.82 ng/mL
- GRF-induced GH response (growth hormone (GH); LOSDAT): absent
- GRF-induced GH response (growth hormone (GH); control subjects): absent
- EEG amplitude, sequential analysis (increase) ([2]; SDAT patients): 52.5±9.89 uV
- EEG frequency, sequential analysis (fall) ([2]; SDAT patients): 7.05±0.90 Hz
- EEG basic rhythm frequency, global evaluation after testing ([2]; SDAT, prior to GRF test 8.08±0.67 Hz): 7.46±0.53 Hz
- EEG basic rhythm amplitude, global evaluation after testing ([2]; SDAT, prior to GRF test 40.80±6.06 uV): 43.69±5.12 uV
- EEG amplitude, sequential analysis (increase) ([2]; control subjects): 55.60±6.40 uV
- EEG frequency, sequential analysis (fall) ([2]; control subjects): 8.75±0.25 Hz
- EEG basic rhythm frequency, global evaluation after testing ([2]; controls, prior to GRF test 9.27±0.11 Hz): 9.05±0.12 Hz
- EEG basic rhythm amplitude, global evaluation after testing ([2]; controls, prior to GRF test 47.36±3.36 uV): 49.67±5.75 uV
- locomotor activity (LA), maze paradigm (Male Wistar rats): 90.2±8.4 pm

Reference: patent publication US4939124A, “Treatment and diagnosis of dementia” (Laboratorios Serono S.A., priority 1988, dated 1990)
